In assay [1] the target is T1, PI3K α (Homo sapiens, UniProt P42336).
T1 construct: Full length p110 subunits of PI3K α, β and δ, N-terminally labeled with polyHis tag; polyHis (N); made in house; host or cells: Sf9 insect cells (baculovirus)
Description: In vitro PI3 kinase enzyme assay (alpha), ATP loss, bioluminescence.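 Also: purified p110α/p85 heterodimer acting on PtdIns(4,5)P2 at room temperature, remaining ATP read by luminescence, inhibition scaled between compound-free wells with and without enzyme.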 Conditions: read-out: PI3Kα ATP loss IC50. Type of assay: biochemical.

For assay [2], the system named is phosphorylation of Serine 473 in Akt, HCT 116 human colon carcinoma cells. The assay can be described thus: Cell-based phospho-AKT Ser473 assay (MSD sandwich immunoassay, IGF-1 stimulated). Conditions: Homo sapiens, HCT-116, HCT 116 cells; read-out: HCT 116 pAKT IC50. The procedure, abridged:
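Akt Ser473 phosphorylation was measured by MSD electrochemiluminescent sandwich immunoassay in lysates of HCT116 cells (16,000 cells/well). Cells received a compound dilution series for 2 h at 37 °C before a 15 min IGF-1 (100 ng/ml) stimulus, with IC50 calculated from the dose-response.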

Assay [3] addresses T2, PI3K β (Homo sapiens, UniProt P42338).
T2 construct: Full length p110 subunits of PI3K α, β and δ, N-terminally labeled with polyHis tag; polyHis (N); made in house; host or cells: Sf9 insect cells (baculovirus)
Description: In vitro PI3 kinase enzyme assay (beta), ATP loss, bioluminescence.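 Also: purified p110β/p85 heterodimer with PtdIns(4,5)P2 as acceptor, incubated at room temperature, leftover ATP read by luminescence, inhibition scaled to compound-free wells with and without enzyme.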 The assay is classed as biochemical. Conditions: read-out: PI3Kβ ATP loss IC50.

As a reminder, the IC50 is the midpoint of a concentration-inhibition curve.

T1 sequence (P42336 whole entry, species assumed): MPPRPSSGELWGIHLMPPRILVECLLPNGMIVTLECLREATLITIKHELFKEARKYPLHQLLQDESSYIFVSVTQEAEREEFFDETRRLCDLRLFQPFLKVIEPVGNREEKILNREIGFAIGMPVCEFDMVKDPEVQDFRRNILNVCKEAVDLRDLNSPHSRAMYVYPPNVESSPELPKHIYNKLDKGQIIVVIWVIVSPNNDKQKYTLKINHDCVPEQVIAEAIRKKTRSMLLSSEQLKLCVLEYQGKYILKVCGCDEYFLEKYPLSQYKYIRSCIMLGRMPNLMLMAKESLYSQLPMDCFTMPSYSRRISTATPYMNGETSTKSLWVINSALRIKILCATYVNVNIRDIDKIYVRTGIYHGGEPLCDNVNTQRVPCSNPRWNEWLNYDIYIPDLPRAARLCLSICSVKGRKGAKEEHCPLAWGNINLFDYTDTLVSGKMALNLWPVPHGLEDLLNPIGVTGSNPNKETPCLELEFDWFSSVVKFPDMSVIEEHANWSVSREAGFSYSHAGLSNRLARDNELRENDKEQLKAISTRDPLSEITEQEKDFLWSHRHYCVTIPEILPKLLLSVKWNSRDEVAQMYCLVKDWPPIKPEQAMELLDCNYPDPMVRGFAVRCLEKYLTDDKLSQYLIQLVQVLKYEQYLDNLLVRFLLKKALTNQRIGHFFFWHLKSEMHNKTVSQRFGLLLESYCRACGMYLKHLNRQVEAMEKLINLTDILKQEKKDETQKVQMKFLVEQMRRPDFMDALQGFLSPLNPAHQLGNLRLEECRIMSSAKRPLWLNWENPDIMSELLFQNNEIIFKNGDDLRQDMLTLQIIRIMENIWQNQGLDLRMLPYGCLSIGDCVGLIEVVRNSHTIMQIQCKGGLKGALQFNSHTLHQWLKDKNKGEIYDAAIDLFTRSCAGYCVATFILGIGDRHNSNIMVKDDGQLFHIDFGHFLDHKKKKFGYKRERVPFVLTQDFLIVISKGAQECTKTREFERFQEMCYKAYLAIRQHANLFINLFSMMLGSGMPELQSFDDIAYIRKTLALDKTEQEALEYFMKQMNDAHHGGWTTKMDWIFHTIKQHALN
T1 sequence (P27986 whole entry partner, species assumed): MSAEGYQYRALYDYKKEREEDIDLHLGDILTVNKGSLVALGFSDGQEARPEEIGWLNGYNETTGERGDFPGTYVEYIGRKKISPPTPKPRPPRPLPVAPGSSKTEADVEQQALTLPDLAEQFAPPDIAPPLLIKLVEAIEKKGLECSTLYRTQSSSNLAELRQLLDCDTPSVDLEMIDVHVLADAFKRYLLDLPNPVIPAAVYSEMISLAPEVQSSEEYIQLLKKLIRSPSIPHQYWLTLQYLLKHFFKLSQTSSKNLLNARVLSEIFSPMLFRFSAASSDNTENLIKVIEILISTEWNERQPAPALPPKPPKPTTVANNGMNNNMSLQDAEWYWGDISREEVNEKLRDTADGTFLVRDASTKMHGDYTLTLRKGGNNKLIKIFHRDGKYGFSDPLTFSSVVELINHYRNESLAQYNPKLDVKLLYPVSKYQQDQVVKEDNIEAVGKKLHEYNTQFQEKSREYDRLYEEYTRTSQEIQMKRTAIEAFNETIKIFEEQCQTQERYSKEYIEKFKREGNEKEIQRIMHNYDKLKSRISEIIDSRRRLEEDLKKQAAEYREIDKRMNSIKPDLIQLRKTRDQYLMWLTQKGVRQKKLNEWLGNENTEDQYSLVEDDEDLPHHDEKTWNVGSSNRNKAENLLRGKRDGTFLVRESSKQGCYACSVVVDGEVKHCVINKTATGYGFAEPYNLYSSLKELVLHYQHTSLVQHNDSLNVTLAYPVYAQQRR
T2 sequence (P42338 whole entry): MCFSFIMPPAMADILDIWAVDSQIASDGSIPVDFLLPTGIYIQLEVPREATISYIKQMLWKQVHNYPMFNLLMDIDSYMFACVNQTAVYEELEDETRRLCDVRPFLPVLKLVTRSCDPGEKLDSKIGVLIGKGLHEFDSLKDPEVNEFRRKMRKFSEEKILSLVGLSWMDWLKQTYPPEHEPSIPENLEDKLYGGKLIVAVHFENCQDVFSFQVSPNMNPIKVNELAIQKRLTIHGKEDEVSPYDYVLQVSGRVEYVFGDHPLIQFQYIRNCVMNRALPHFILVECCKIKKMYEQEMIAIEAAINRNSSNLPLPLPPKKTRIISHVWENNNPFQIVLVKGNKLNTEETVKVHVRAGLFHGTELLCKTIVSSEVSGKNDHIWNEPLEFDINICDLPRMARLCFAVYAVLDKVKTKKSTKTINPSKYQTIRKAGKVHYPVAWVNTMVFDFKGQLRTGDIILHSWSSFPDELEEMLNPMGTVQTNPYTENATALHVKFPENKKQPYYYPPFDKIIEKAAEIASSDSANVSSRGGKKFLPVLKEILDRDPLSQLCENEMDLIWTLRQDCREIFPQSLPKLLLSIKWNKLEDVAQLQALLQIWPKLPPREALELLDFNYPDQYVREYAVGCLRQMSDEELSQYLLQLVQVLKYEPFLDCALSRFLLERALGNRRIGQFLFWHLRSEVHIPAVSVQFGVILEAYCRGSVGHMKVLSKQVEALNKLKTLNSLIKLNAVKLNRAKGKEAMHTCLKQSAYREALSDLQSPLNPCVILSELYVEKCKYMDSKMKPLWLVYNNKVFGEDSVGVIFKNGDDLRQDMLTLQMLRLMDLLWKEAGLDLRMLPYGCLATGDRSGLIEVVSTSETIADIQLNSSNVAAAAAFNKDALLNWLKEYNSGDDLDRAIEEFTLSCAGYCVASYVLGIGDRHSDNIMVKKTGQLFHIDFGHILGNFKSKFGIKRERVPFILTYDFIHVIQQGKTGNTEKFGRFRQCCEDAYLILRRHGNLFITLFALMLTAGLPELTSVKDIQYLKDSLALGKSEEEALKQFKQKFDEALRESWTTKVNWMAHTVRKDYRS
T2 sequence (P27986 whole entry partner): as the sequence (P27986 whole entry partner, species assumed) above

With `CC(=O)Nc1nc2ccc(-c3ccnc(N(C)S(=O)(=O)c4ccc(C(F)(F)F)cc4)n3)cc2s1` [Example 213, N-(6-(2-(N-methyl-4-(trifluoromethyl)phenylsulfonamido)pyrimidin-4-yl)benzo[d]thiazol-2-yl)acetamide], the results for the half-inhibitory concentration (IC50) in assay [1], in assay [2] and in assay [3] were 0.0913 µM, 0.0928 µM and 0.119 µM, respectively.
Consider `CC(=O)Oc1cc(-c2ccc3ncsc3c2)cnc1Cl` [Example 335, 5-(1,3-benzothiazol-6-yl)-2-chloro-3-pyridinyl acetate], for which the values for the half-inhibitory concentration (IC50) in assay [1], in assay [2] and in assay [3] were 0.0156 µM, 0.044 µM and 0.113 µM, respectively.
As for `CC(=O)Nc1nc2ccc(-c3cncc(Cl)n3)cc2s1` [Example 150, N-(6-(6-chloro-2-pyrazinyl)-1,3-benzothiazol-2-yl)acetamide], the IC50 in assay [1] was 0.186 µM; in assay [2] it was 0.503 µM; in assay [3], 0.902 µM.
For `CC(=O)Nc1nc2ccc(-c3cnc(Cl)c(NS(=O)(=O)c4ccc(OC(F)F)cc4)c3)cc2s1` [Example 182, N-(6-(6-chloro-5-(4-(difluoromethoxy)phenylsulfonamido)pyridin-3-yl)benzo[d]thiazol-2-yl)acetamide], the IC50 in assay [1] came to 0.006 µM; in assay [2], 0.0249 µM; in assay [3], 0.006 µM.
As to `CC(=O)Nc1nc2ccc(-c3cncc(OCc4ccccc4)n3)cc2s1` [Example 135, N-(6-(6-(benzyloxy)-2-pyrazinyl)-1,3-benzothiazol-2-yl)acetamide], the half-inhibitory concentration (IC50) in assay [1] is 0.0542 µM; in assay [2], 1.97 µM; in assay [3], 0.219 µM.
The like results for `CC(=O)Nc1nc2ccc(-c3cnc(C)c(NS(=O)(=O)c4cccc(C(F)(F)F)c4)c3)cc2s1` [Example 113, N-(6-(6-methyl-5-(((3-(trifluoromethyl)phenyl)sulfonyl)amino)-3-pyridinyl)-1,3-benzothiazol-2-yl)acetamide] were, in that order, 0.0064 µM, 0.0067 µM and 0.013 µM.
The corresponding values for `Cc1cc(F)ccc1S(=O)(=O)Nc1cc(-c2ccc3nc(N)sc3c2)cnc1Cl` [Example 312, N-(5-(2-amino-1,3-benzothiazol-6-yl)-2-chloro-3-pyridinyl)-4-fluoro-2-methylbenzenesulfonamide] are 0.006 µM, 0.348 µM and 0.0249 µM.
The like results for `CC(=O)Nc1nc2ccc(-c3cnc(Cl)c(OC(C)=O)c3)cc2s1` [Example 303, 5-(2-acetamidobenzo[d]thiazol-6-yl)-2-chloropyridin-3-yl acetate] were, in that order, 0.002 µM, 0.0017 µM and 0.0122 µM.
Turning to `CC(=O)Nc1nc2ccc(-c3cncc(NS(=O)(=O)c4ccc(F)cc4)c3)cc2s1` [Example 198, N-(6-(5-(4-fluorophenylsulfonamido)pyridin-3-yl)benzo[d]thiazol-2-yl)acetamide], the 50% inhibitory concentration (IC50) in assay [1] was found to be 0.0053 µM; in assay [2], 0.0404 µM; in assay [3] it was 0.0147 µM.
The like results for `COc1ccc(Sc2nccc(-c3ccc4nc(NC(C)=O)sc4c3)n2)c(C)c1` [Example 27, N-(6-(2-((4-methoxy-2-methylphenyl)sulfanyl)-4-pyrimidinyl)-1,3-benzothiazol-2-yl)acetamide] were, in that order, 0.04 µM, 0.594 µM and 0.201 µM.
Regarding `COc1ccc(S(=O)(=O)c2cncc(-c3ccc4nc(NC(C)=O)sc4c3)n2)cc1` [Example 120, N-(6-(6-((4-methoxyphenyl)sulfonyl)-2-pyrazinyl)-1,3-benzothiazol-2-yl)acetamide], the IC50 in assay [1] worked out at 0.0164 µM; in assay [2], 0.332 µM; in assay [3], 1.07 µM.
The corresponding values for `CC(=O)Nc1nc2ccc(-c3cnc(C)c(NS(=O)(=O)c4ccc(F)cc4)c3)cc2s1` [Example 111, N-(6-(5-(((4-fluorophenyl)sulfonyl)amino)-6-methyl-3-pyridinyl)-1,3-benzothiazol-2-yl)acetamide] are 0.0041 µM, 0.0255 µM and 0.0131 µM.
The corresponding values for `CC(C)(O)c1ccc(S(=O)(=O)Nc2cc(-c3ccc4nc(N)sc4c3)cnc2Cl)cc1` [Example 324, N-(5-(2-amino-1,3-benzothiazol-6-yl)-2-chloro-3-pyridinyl)-4-(1-hydroxy-1-methylethyl)benzenesulfonamide] are 0.0109 µM, 0.151 µM and 0.0171 µM.
The corresponding values for `CC(=O)Nc1nc2ccc(-c3ccnc(N(C)S(=O)(=O)c4cccc(C)c4)n3)cc2s1` [Example 93, N-(6-(2-(N,3-Dimethylphenylsulfonamido)pyrimidin-4-yl)benzo[d]thiazol-2-yl)acetamide] are 0.102 µM, 0.218 µM and 0.174 µM.
With `CCCCS(=O)(=O)Nc1cc(-c2ccc3nc(NC(C)=O)sc3c2)cnc1Cl` [Example 178, N-(6-(5-(butylsulfonamido)-6-chloropyridin-3-yl)benzo[d]thiazol-2-yl)acetamide], the half-inhibitory concentration (IC50) is 0.0106 µM in assay [1], 0.0156 µM in assay [2] and 0.0199 µM in assay [3].
The corresponding values for `CC(=O)Nc1nc2ccc(-c3ccnc(NCc4ccccc4)n3)cc2s1` [Example 49, N-(6-(2-(benzylamino)-4-pyrimidinyl)-1,3-benzothiazol-2-yl)acetamide] are 0.418 µM, 15.3 µM and 1.45 µM.
The corresponding values for `CC(=O)Nc1nc2ccc(-c3cnc(Cl)c(NS(=O)(=O)c4ccc(C)cc4)c3)cc2s1` [Example 189, N-(6-(6-chloro-5-(4-methylphenylsulfonamido)pyridin-3-yl)benzo[d]thiazol-2-yl)acetamide] are 0.0064 µM, 0.0039 µM and 0.0077 µM.
The corresponding values for `CC(=O)NC(C)(C)c1ccc(S(=O)(=O)Nc2cc(-c3ccc4nc(N)sc4c3)cnc2Cl)cc1` [Example 323, N-(1-(4-((5-(2-amino-1,3-benzothiazol-6-yl)-2-chloro-3-pyridinyl)sulfamoyl)phenyl)-1-methylethyl)acetamide] are 0.0196 µM, 0.915 µM and 0.0332 µM.
With `CC(=O)Nc1nc2ccc(-c3cncc(NS(=O)(=O)c4ccc(C(C)(C)C)cc4)c3)cc2s1` [Example 201, N-(6-(5-(4-tert-butylphenylsulfonamido)pyridin-3-yl)benzo[d]thiazol-2-yl)acetamide], the half-inhibitory concentration (IC50) in assay [1] came out at 0.0065 µM; in assay [2], 0.117 µM; in assay [3] it was 0.0111 µM.
Take `Nc1nc2ccc(-c3cnc(Cl)c(NS(=O)(=O)c4ccc(F)cc4Cl)c3)cc2s1` [Example 309, N-(5-(2-amino-1,3-benzothiazol-6-yl)-2-chloro-3-pyridinyl)-2-chloro-4-fluorobenzenesulfonamide]: the concentration for half-maximal inhibition (IC50) in assay [1] amounted to 0.0149 µM; in assay [2] it was 0.496 µM; in assay [3], 0.0368 µM.
Turning to `CNc1nc2ccc(-c3cnc(Cl)c(NS(=O)(=O)c4ccccc4F)c3)cc2s1` [Example 320, N-(2-chloro-5-(2-(methylamino)-1,3-benzothiazol-6-yl)-3-pyridinyl)-2-fluorobenzenesulfonamide], the IC50 in assay [1] worked out at 0.0146 µM; in assay [2], 0.448 µM; in assay [3], 0.0618 µM.
The corresponding values for `CN(C)CC(=O)Nc1nc2ccc(-c3cnc(Cl)c(N(C)C)c3)cc2s1` [Example 275, N-(6-(6-Chloro-5-(dimethylamino)pyridin-3-yl)benzo[d]thiazol-2-yl)-2-(dimethylamino)acetamide] are 0.311 µM, 0.616 µM and 2.9 µM.
The corresponding values for `COc1ccc(S(=O)(=O)c2cccc(-c3cc(F)c4nc(NC(C)=O)sc4c3)n2)cc1` [Example 148, N-(4-fluoro-6-(6-((4-methoxyphenyl)sulfonyl)-2-pyridinyl)-1,3-benzothiazol-2-yl)acetamide] are 0.151 µM, 0.881 µM and 1.36 µM.
The like results for `CC(=O)Nc1nc2ccc(-c3cnc(Cl)c(NS(=O)(=O)c4ccc(C(C)=O)cc4)c3)cc2s1` [Example 119, N-(6-(5-(((4-acetylphenyl)sulfonyl)amino)-6-chloro-3-pyridinyl)-1,3-benzothiazol-2-yl)acetamide] were, in that order, 0.0123 µM, 0.0345 µM and 0.0135 µM.
Consider `CC(=O)Nc1nc2ccc(-c3ccnc(OCc4ccc5c(c4)OCO5)n3)cc2s1` [Example 40, N-(6-(2-(1,3-benzodioxol-5-ylmethoxy)-4-pyrimidinyl)-1,3-benzothiazol-2-yl)acetamide], for which the half-maximal inhibitory concentration (IC50) in assay [1] is 0.0834 µM; in assay [2], 1.05 µM; in assay [3], 25.1 µM.
Turning to `Cc1ccc(S(=O)(=O)Nc2nnc(-c3ccc4nc(NC(=O)OC(C)(C)C)sc4c3)o2)cc1` [Example 166, tert-Butyl 6-(5-(4-methylphenylsulfonamido)-1,3,4-oxadiazol-2-yl)benzo[d]thiazol-2-ylcarbamate], the 50% inhibitory concentration (IC50) in assay [1] was found to be 0.336 µM; in assay [2] it was 0.239 µM; in assay [3] it was 2.2 µM.
The corresponding values for `CNc1nc2ccc(-c3cnc(Cl)c(NS(=O)(=O)c4ccc(F)cc4)c3)cc2s1` [Example 317, N-(2-chloro-5-(2-(methylamino)-1,3-benzothiazol-6-yl)-3-pyridinyl)-4-fluorobenzenesulfonamide] are 0.0086 µM, 0.246 µM and 0.0302 µM.
